Experimental data reported in ChEMBL document CHEMBL5576105, “Synthesis and biological evaluation of O4'-benzyl-hispidol derivatives and analogs as dual monoamine oxidase-B inhibitors and anti-neuroinflammatory agents” (Bioorg Med Chem, 2024).
Active and inactive are the calls of the source. The rule behind the calls is not given here.

Assays:
[1] = molecular target: T1, Amine oxidase [flavin-containing] B (Homo sapiens, UniProt P27338); assay: Inhibition of human recombinant MAO-B expressed in baculovirus-infected BTI cells at 10 uM using benzylamine as substrate preincubated with enzyme for 15 mins followed by substrate addition and measured after 20 mins by Amplex Red reagent based fluorescence analysis; conditions: time 35 min
T1 sequence (P27338 whole entry): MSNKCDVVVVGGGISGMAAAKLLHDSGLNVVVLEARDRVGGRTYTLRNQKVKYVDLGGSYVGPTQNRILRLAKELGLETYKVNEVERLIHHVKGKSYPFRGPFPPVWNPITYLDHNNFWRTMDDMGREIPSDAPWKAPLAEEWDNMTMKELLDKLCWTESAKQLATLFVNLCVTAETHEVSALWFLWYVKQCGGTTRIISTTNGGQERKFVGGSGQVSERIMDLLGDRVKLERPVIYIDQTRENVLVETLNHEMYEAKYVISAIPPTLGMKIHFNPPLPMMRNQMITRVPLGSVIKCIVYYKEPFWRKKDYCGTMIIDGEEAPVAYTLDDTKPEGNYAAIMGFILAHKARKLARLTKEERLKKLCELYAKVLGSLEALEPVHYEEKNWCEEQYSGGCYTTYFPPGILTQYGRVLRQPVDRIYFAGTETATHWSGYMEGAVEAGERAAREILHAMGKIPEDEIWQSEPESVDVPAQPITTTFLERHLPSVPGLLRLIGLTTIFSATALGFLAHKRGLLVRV

[2] = molecular target: T2, Amine oxidase [flavin-containing] A (Homo sapiens, UniProt P21397); assay: Inhibition of human recombinant MAO-A using p-tyramine as substrate preincubated with enzyme for 15 mins followed by substrate addition and measured after 20 mins by Amplex Red reagent based fluorescence analysis
T2 sequence (P21397 whole entry): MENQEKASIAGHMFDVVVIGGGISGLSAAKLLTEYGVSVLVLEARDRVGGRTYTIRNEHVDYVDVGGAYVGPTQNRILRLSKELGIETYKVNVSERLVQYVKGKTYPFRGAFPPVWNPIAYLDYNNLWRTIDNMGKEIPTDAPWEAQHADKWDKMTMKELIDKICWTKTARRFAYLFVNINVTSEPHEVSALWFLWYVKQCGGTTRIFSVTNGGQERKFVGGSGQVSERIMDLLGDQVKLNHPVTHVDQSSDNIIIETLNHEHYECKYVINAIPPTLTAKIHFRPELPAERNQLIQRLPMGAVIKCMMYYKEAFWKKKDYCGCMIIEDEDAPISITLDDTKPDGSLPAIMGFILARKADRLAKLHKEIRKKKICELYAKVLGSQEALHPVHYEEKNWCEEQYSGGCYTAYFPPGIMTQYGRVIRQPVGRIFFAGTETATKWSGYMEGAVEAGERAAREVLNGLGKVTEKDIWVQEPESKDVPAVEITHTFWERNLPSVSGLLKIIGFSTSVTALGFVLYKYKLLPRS

Homo sapiens = species on record: Homo sapiens; assay: Selectivity index, ratio of IC50 for inhibition of human recombinant MAO-A to IC50 for inhibition of human recombinant MAO-B expressed in baculovirus-infected BTI cells
MAO-B = assay: Safety ratio of cytotoxicity against mouse BV-2 cells to IC50 for inhibition of human recombinant MAO-B expressed in baculovirus-infected BTI cells; type: toxicity
[3] = molecular target: T1, Amine oxidase [flavin-containing] B; assay: Inhibition of human recombinant MAO-B expressed in baculovirus-infected BTI cells using benzylamine as substrate preincubated with enzyme for 15 mins followed by substrate addition and measured after 20 mins by Amplex Red reagent based fluorescence analysis
BV-2 [4] = assay: Cytotoxicity against mouse BV-2 cells assessed as effect on cell viability upto 10 uM; type: toxicity, cell-based; conditions: bv-2, 10 µM
BV-2 [5] = assay: Anti-neuroinflammatory activity against mouse BV-2 cells assessed as suppression of LPS-induced NO production at 3 uM; type: functional, cell-based
[6] = molecular target: T1, Amine oxidase [flavin-containing] B; assay: Irreversible inhibition of MAO-B (unknown origin) measured after drug wash-out
BV-2 [7] = assay: Anti-neuroinflammatory activity against mouse BV-2 cells assessed as suppression of LPS-induced PGE2 production at 5 to 10 uM; type: functional, cell-based; conditions: dose 5-10 µM
BV-2 [8] = assay: Anti-neuroinflammatory activity against mouse BV-2 cells assessed as suppression of LPS-induced NO production at 1 uM; type: functional, cell-based
BV-2 [9] = assay: Anti-neuroinflammatory activity against mouse BV-2 cells assessed as suppression of LPS-induced NO production; type: functional, cell-based
BV-2 [10] = assay: Anti-neuroinflammatory activity against mouse BV-2 cells assessed as suppression of LPS-induced NO production at 10 uM; type: functional, cell-based
BV-2 [11] = assay: Anti-neuroinflammatory activity against mouse BV-2 cells assessed as suppression of LPS-induced PGE2 production; type: functional, cell-based; conditions: dose 5-10 µM
BV-2 [12] = assay: Cytotoxicity against mouse BV-2 cells assessed as effect on cell viability at 30 uM; type: toxicity, cell-based; conditions: bv-2, 30 µM
BV-2 [13] = assay: Anti-neuroinflammatory activity against mouse BV-2 cells assessed as suppression of LPS-induced PGE2 production at 10 uM; type: functional, cell-based

inhibition at 10 µM [1] [%] | IC50 [2] [nM] | IC50 [3] [nM] | Compound | Ratio IC50 (Homo sapiens) | other results
81.7 | > 100000 | 440 | O=C1/C(=C/c2ccc(OCc3ccccc3Br)cc2)Oc2cc(O)ccc21 | > 227 | selectivity ratio (MAO-B): > 6
59 | – | – | O=C1/C(=C/c2ccc(OCc3cccc(Cl)c3)cc2)Oc2cc(O)ccc21 | – | –
59.7 | – | – | COc1cccc(COc2ccc(/C=C3\Oc4cc(O)ccc4C3=O)cc2)c1 | – | –
48.5 | – | – | O=C1/C(=C/c2ccc(OCc3cccc([N+](=O)[O-])c3)cc2)Oc2cc(O)ccc21 | – | –
35.6 | – | – | O=C1/C(=C/c2ccc(OCc3ccc(Cl)cc3)cc2)Oc2cc(O)ccc21 | – | –
69.6 | > 100000 | 1670 | O=C1/C(=C/c2cccc(OCc3ccc(Br)cc3)c2)Oc2cc(O)ccc21 | > 59.9 | –
33.9 | – | – | O=C1/C(=C/c2cccc(OCc3cccc([N+](=O)[O-])c3)c2)Oc2cc(O)ccc21 | – | –
70.7 | > 100000 | 1810 | O=C1/C(=C/c2cccc(OCc3ccc(Cl)cc3)c2)Oc2cc(O)ccc21 | > 55.2 | –
67.9 | > 100000 | 950 | O=C1/C(=C/c2ccc(OCc3cccc(Br)c3)cc2)Oc2cc(O)ccc21 | > 106 | Activity (BV-2 [4]): Non-Toxic; selectivity ratio (MAO-B): 10.6
55.1 | – | – | O=C1/C(=C/c2cccc(OCc3cccc(F)c3)c2)Oc2cc(O)ccc21 | – | –
36 | – | – | O=C1/C(=C/c2cccc(OCc3ccccc3Br)c2)Oc2cc(O)ccc21 | – | –
74.2 | > 100000 | 760 | O=C1/C(=C/c2ccc(OCc3ccccc3F)cc2)Oc2cc(O)ccc21 | > 131 | Activity (BV-2 [4]): Non-Toxic; selectivity ratio (MAO-B): > 13.1
55.3 | – | – | O=C1/C(=C/c2ccc(OCc3cccc(F)c3)cc2)Oc2cc(O)ccc21 | – | –
70.1 | > 30000 | 1060 | COc1cccc(COc2cccc(/C=C3\Oc4cc(O)ccc4C3=O)c2)c1 | > 28.4 | –
81.3 | > 100000 | 380 | O=C1/C(=C/c2ccc(OCc3ccccc3Cl)cc2)Oc2cc(O)ccc21 | > 264 | Activity (BV-2 [5]): Active; inhibition (INH) [6]: Active; Activity (BV-2 [7]): Active; Activity (BV-2 [8]): inactive; Activity (BV-2 [4]): Non-Toxic; selectivity ratio (MAO-B): > 27; Activity (BV-2 [9]): Dose-Dependent Effect
62.7 | > 100000 | 2020 | O=C1/C(=C/c2cccc(OCc3cccc(Br)c3)c2)Oc2cc(O)ccc21 | > 49.6 | –
86.7 | > 100000 | 720 | O=C1/C(=C/c2ccc(OCc3ccccc3)cc2)Oc2cc(O)ccc21 | > 138 | Activity (BV-2 [7]): Active; Activity (BV-2 [10]): Active; Activity (BV-2 [11]): Dose-Dependent Effect; Activity (BV-2 [4]): Non-Toxic; Activity (BV-2 [12]): Non-Toxic; selectivity ratio (MAO-B): > 41.6; Activity (BV-2 [9]): Dose-Dependent Effect
41.7 | – | – | O=C1/C(=C/c2cccc(OCc3ccccc3Cl)c2)Oc2cc(O)ccc21 | – | –
60.7 | > 100000 | 2370 | O=C1/C(=C/c2cccc(OCc3ccc(F)cc3)c2)Oc2cc(O)ccc21 | > 42.2 | –
68.2 | > 100000 | 1000 | O=C1/C(=C/c2ccc(OCc3ccc(F)cc3)cc2)Oc2cc(O)ccc21 | > 100 | Activity (BV-2 [5]): Active; Activity (BV-2 [13]): Active; Activity (BV-2 [8]): inactive; Activity (BV-2 [11]): Dose-Dependent Effect; Activity (BV-2 [4]): Non-Toxic; Activity (BV-2 [12]): Non-Toxic; selectivity ratio (MAO-B): > 30; Activity (BV-2 [9]): Dose-Dependent Effect
41.1 | – | – | O=C1/C(=C/c2ccc(OCc3ccc(Br)cc3)cc2)Oc2cc(O)ccc21 | – | –
– | > 100000 | – | COc1ccc(/C=C2\Oc3cc(O)ccc3C2=O)c(OC)c1OC | > 583 | –
77.8 | > 100000 | 1110 | O=C1/C(=C/c2cccc(OCc3ccccc3)c2)Oc2cc(O)ccc21 | > 89.8 | –
61.7 | > 100000 | 1910 | O=C1/C(=C/c2cccc(OCc3cccc(Cl)c3)c2)Oc2cc(O)ccc21 | > 52.3 | –
73.9 | > 100000 | 950 | O=C1/C(=C/c2cccc(OCc3ccccc3F)c2)Oc2cc(O)ccc21 | > 106 | –
